Measured values from US20260022142A1, “MACROCYCLIC IMMUNOMODULATORS” (Bristol-Myers Squibb Company, priority 2022, published 2026).
pIC50: −log10 of the molar value. Numbered stars: 1 amine (or outer) side, 2 acyl side, 3 side chain; on linkers, the order of the positions; unused ones are H or OH. Bridge positions count the residues as written; N and C are the ends. Square brackets hold non-standard residues; d marks the D form. Peptide text beside a SMILES is read from it. * marks the point of attachment. ξ: configuration not given here. X2 = CC(C)C[C@H](N[*:1])C(=O)C[C@H](C(=O)[*:2])C(C)C; Phe(3,4-F2) = N[C@@H](Cc1ccc(F)c(F)c1)C(=O)O; Bip = N[C@@H](Cc1ccc(-c2ccccc2)cc1)C(=O)O; Phe(3-Me) = Cc1cccc(C[C@H](N)C(=O)O)c1; X19 = O=C([C@@H]1CC(O)CN1[*:1])[*:2]; Val(3-OH) = CC(C)(O)[C@H](N)C(=O)O; hArg = N=C(N)NCCCC[C@H](N)C(=O)O; 4Pal = N[C@@H](Cc1ccncc1)C(=O)O; Cha = N[C@@H](CC1CCCCC1)C(=O)O; Cit = NC(=O)NCCC[C@H](N)C(=O)O; Thr(3ξ) = CC(O)[C@H](N)C(=O)O; dDab = NCC[C@@H](N)C(=O)O; Carboxymethyl = O=C(O)C*; Nle = CCCC[C@H](N)C(=O)O; Orn = NCCC[C@H](N)C(=O)O; Aun = NCCCCCCCCCCC(=O)O; Dab = NCC[C@H](N)C(=O)O; Dap = NC[C@H](N)C(=O)O; AEEA = NCCOCCOCC(=O)O; Piv = CC(C)(C)C(=O)*

Target: T1, PD-1/PD-L1 interaction (PE-labeled human PD-L1-Ig binding to Jurkat cell line over-expressing human PD-1) (Homo sapiens, UniProt Q15116)
T1 construct: expressed in transfected cells; host or cells: Jurkat
Assay: Jurkat-PD-1 Cell Binding High-Content Screening Assay (CBA)
Type: cell-based
Details: Jurkat cell line over-expressing human PD-1; PE-labeled PD-L1-Ig 20 nM final; read-out: Jurkat hPD1-PDL1 IC50
Summary of the method: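 Human PD-L1-Ig carrying a covalent PE label on its Ig tag serves as the probe, applied at 20 nM final to compound-treated (2 h, 37° C) Jurkat-hPD-1 cells in medium with 10% fetal calf serum. After one hour, fixation and nuclear staining precede high-content image analysis.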

T1 sequence (Q15116 25-288): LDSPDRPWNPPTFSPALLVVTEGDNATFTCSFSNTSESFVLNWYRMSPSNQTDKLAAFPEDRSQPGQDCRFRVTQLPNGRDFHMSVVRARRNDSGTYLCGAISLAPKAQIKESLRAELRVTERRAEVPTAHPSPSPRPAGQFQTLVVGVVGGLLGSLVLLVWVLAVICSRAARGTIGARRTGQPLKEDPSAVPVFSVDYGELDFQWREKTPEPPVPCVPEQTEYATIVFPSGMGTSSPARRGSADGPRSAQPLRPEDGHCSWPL

pIC50	SMILES
6.82	CC(C)C[C@H]1NC(=O)[C@H](CCCN)NC(=O)[C@H](Cc2ccc(O)cc2)NC(=O)[C@H](Cc2ccc(-c3ccccc3)cc2)NC(=O)[C@H](Cc2ccc(O)cc2)NC(=O)[C@H](Cc2c[nH]c3ccccc23)NC(=O)[C@H](CC(=O)O)NC(=O)[C@H](Cc2ccc(OCC(=O)O)cc2)NC(=O)[C@H](C(C)O)NC(=O)CSC[C@@H](C(=O)N[C@@H](CCN)C(=O)NCCCCCCCCCCC(=O)O)NC(=O)[C@H](CN)NC(=O)[C@H](C(C)O)NC(=O)[C@H](CC2CCCCC2)NC(=O)[C@H](CCN)NC1=O (stereo partly drawn) [Compound 3669] ({CH2CO}-[Thr(3ξ)]Y(Carboxymethyl)DWY[Bip]Y[Orn][dL][Dab][Cha][Thr(3ξ)][Dap]C[Dab][Aun]-OH; thioether N-14)
7.73	Cc1cccc(C[C@@H]2NC(=O)[C@H](CC(=O)O)NC(=O)[C@H](Cc3ccc(OCC(=O)O)cc3)NC(=O)[C@H](CCN)NC(=O)CSC[C@@H](C(=O)N[C@@H](CCN)C(=O)NCCOCCOCC(=O)NCCCCCCCCCCC(=O)O)NC(=O)[C@H](CCCN)NC(=O)[C@H](C(C)C)NC(=O)[C@H](CC3CCCCC3)NC(=O)[C@H](CCN)NC(=O)[C@@H](CC(C)C)NC(=O)[C@H](CCCN)NC(=O)[C@H](CCCCNC(=O)C(C)(C)C)NC(=O)[C@H](Cc3ccc(-c4ccccc4)cc3)NC(=O)[C@H](CCCCNC(=O)C(C)(C)C)NC2=O)c1 [Compound 3609] ({CH2CO}-[Dab]Y(Carboxymethyl)D[Phe(3-Me)]K(Piv)[Bip]K(Piv)[Orn][dL][Dab][Cha]V[Orn]C[Dab][AEEA][Aun]-OH; thioether N-14)
7.77	CC(=O)NCCCC[C@@H]1NC(=O)[C@H](Cc2ccc(-c3ccccc3)cc2)NC(=O)[C@H](C(C)C)NC(=O)[C@H](Cc2cccc(C)c2)NC(=O)[C@H](CC(=O)O)NC(=O)[C@H](Cc2ccc(OCC(=O)O)cc2)NC(=O)[C@H](CCCCNC(=N)N)NC(=O)CSC[C@@H](C(=O)N[C@@H](CCN)C(=O)NCCCCCCCCCCC(=O)O)NC(=O)[C@H](C(C)O)NC(=O)[C@H](C(C)C)NC(=O)[C@H](CC2CCCCC2)NC(=O)[C@H](CCN)NC(=O)[C@@H](CC(C)C)NC(=O)[C@H](CCCN)NC1=O (stereo partly drawn) [Compound 3580] ({CH2CO}-[hArg]Y(Carboxymethyl)D[Phe(3-Me)]V[Bip]K(Ac)[Orn][dL][Dab][Cha]V[Thr(3ξ)]C[Dab][Aun]-OH; thioether N-14)
6.39	CCCC[C@@H]1NC(=O)[C@H](C(C)C)NC(=O)[C@H](CC2CCCCC2)NC(=O)[C@H](CCN)NC(=O)[C@@H](CC(C)C)NC(=O)[C@H](CCCN)NC(=O)[C@H](Cc2ccc(O)cc2)NC(=O)[C@H](Cc2ccc(-c3ccccc3)cc2)NC(=O)[C@H](Cc2ccc(O)cc2)NC(=O)[C@H](Cc2cccc(C)c2)NC(=O)[C@H](CC(=O)O)NC(=O)[C@H](Cc2ccc(OCC(=O)O)cc2)NC(=O)[C@H](CN)NC(=O)CSC[C@@H](C(=O)N[C@@H](CCN)C(=O)NCCCCCCCCCCC(=O)O)NC1=O [Compound 2714] ({CH2CO}-[Dap]Y(Carboxymethyl)D[Phe(3-Me)]Y[Bip]Y[Orn][dL][Dab][Cha]V[Nle]C[Dab][Aun]-OH; thioether N-14)
6.39	CC(C)C[C@H]1NC(=O)[C@H](CCCN)NC(=O)[C@H](C(C)C)NC(=O)[C@H](Cc2ccc(-c3ccccc3)cc2)NC(=O)[C@H](C(C)C)NC(=O)[C@H](Cc2c[nH]c3ccccc23)NC(=O)[C@H](CC(=O)O)NC(=O)[C@H](Cc2c[nH]cn2)NC(=O)[C@H](CCCCNC(=N)N)NC(=O)CSC[C@@H](C(=O)N[C@@H](CCN)C(=O)NCCCCCCCCCCC(=O)O)NC(=O)[C@@H]2CC(O)CN2C(=O)[C@H](C(C)C)NC(=O)[C@H](CC2CCCCC2)NC(=O)[C@H](CCN)NC1=O (stereo partly drawn) [Compound 3274] ({CH2CO}-[hArg]HDWV[Bip]V[Orn][dL][Dab][Cha]V[X19]C[Dab][Aun]-OH; thioether N-14)
7.74	Cc1cccc(C[C@@H]2NC(=O)[C@H](CC(=O)O)NC(=O)[C@H](Cc3ccc(OCC(=O)O)cc3)NC(=O)[C@H](Cc3ccncc3)NC(=O)CSC[C@@H](C(=O)N[C@@H](CCN)C(=O)NCCCCCCCCCCC(=O)O)NC(=O)[C@H](CO)NC(=O)[C@H](C(C)(C)O)NC(=O)[C@H](CC3CCCCC3)NC(=O)[C@H](Cc3cnc[nH]3)NC(=O)[C@@H](CC(C)C)NC(=O)[C@H](CCCN)NC(=O)[C@H](Cc3ccc(OCC(=O)O)cc3)NC(=O)[C@H](Cc3ccc(-c4ccccc4)cc3)NC(=O)[C@H](Cc3ccc(OCC(=O)O)cc3)NC2=O)c1 [Compound 3721] ({CH2CO}-[4Pal]Y(Carboxymethyl)D[Phe(3-Me)]Y(Carboxymethyl)[Bip]Y(Carboxymethyl)[Orn][dL]H[Cha][Val(3-OH)]SC[Dab][Aun]-OH; thioether N-14)
7.87	CC(C)C[C@@H]1NC(=O)[C@H](CCN)NC(=O)[C@@H](CC(C)C)NC(=O)[C@H](CCCN)NC(=O)[C@H](C(C)C)NC(=O)[C@H](Cc2ccc(-c3ccccc3)cc2)NC(=O)[C@H](CC(C)C)NC(=O)[C@H](Cc2c[nH]c3ccccc23)NC(=O)[C@H](CC(=O)O)NC(=O)[C@H](Cc2ccncc2)NC(=O)[C@H](Cc2ccc(OCC(=O)O)cc2)NC(=O)CSC[C@@H](C(=O)N[C@H](CCN)C(=O)NCCOCCOCC(=O)NCCCCCCCCCCC(=O)O)NC(=O)[C@H](CO)NC(=O)[C@H](C(C)C)CC1=O [Compound 3072] ({CH2CO}-Y(Carboxymethyl)[4Pal]DWL[Bip]V[Orn][dL][Dab][X2]SC[dDab][AEEA][Aun]-OH; thioether N-13)
8.05	Cc1cccc(C[C@@H]2NC(=O)[C@H](CC(=O)O)NC(=O)[C@H](Cc3ccc(OCC(=O)O)cc3)NC(=O)[C@H](CN)NC(=O)CSC[C@@H](C(=O)N[C@@H](CCN)C(=O)NCCOCCOCC(=O)NCCCCCCCCCCC(=O)O)NC(=O)[C@H](CCCN)NC(=O)[C@H](C(C)C)NC(=O)[C@H](CC3CCCCC3)NC(=O)[C@H](CCN)NC(=O)[C@@H](CC(C)C)NC(=O)[C@H](CCCN)NC(=O)[C@H](Cc3ccc(O)cc3)NC(=O)[C@H](Cc3ccc(-c4ccccc4)cc3)NC(=O)[C@H](Cc3ccncc3)NC2=O)c1 [Compound 2073] ({CH2CO}-[Dap]Y(Carboxymethyl)D[Phe(3-Me)][4Pal][Bip]Y[Orn][dL][Dab][Cha]V[Orn]C[Dab][AEEA][Aun]-OH; thioether N-14)
7.90	Cc1cccc(C[C@@H]2NC(=O)[C@H](CC(=O)O)NC(=O)[C@H](Cc3c[nH]cn3)NC(=O)[C@H](CCCCNC(=N)N)NC(=O)CSC[C@@H](C(=O)NCCOCCOCC(=O)NCCCCCCCCCCC(=O)O)NC(=O)[C@H](CCCN)NC(=O)[C@H](C(C)C)NC(=O)[C@H](CC3CCCCC3)NC(=O)[C@H](CCN)NC(=O)[C@@H](CC(C)C)NC(=O)[C@H](CCCN)NC(=O)[C@H](C(C)C)NC(=O)[C@H](Cc3ccc(-c4ccccc4)cc3)NC(=O)[C@H](C(C)C)NC2=O)c1 [Compound 3264] ({CH2CO}-[hArg]HD[Phe(3-Me)]V[Bip]V[Orn][dL][Dab][Cha]V[Orn]C[AEEA][Aun]-OH; thioether N-14)
7.71	CC(C)C[C@H]1NC(=O)[C@H](CCCN)NC(=O)[C@H](CCCNC(N)=O)NC(=O)[C@H](Cc2ccc(-c3ccccc3)cc2)NC(=O)[C@H](C(C)C)NC(=O)[C@H](Cc2c[nH]c3ccccc23)NC(=O)[C@H](CC(=O)O)NC(=O)[C@H](Cc2ccc(OCC(=O)O)cc2)NC(=O)[C@H](CCCNC(=N)N)NC(=O)CSC[C@@H](C(=O)N[C@@H](CCC(=O)O)C(=O)NCCOCCOCC(=O)NCCCCCCCCCCC(=O)O)NC(=O)[C@H](C(C)O)NC(=O)[C@H](C(C)C)NC(=O)[C@H](CC2CCCCC2)NC(=O)[C@H](CCN)NC1=O (stereo partly drawn) [Compound 3399] ({CH2CO}-RY(Carboxymethyl)DWV[Bip][Cit][Orn][dL][Dab][Cha]V[Thr(3ξ)]CE[AEEA][Aun]-OH; thioether N-14)
8.09	CC(=O)NCCCC[C@@H]1NC(=O)[C@H](Cc2ccc(-c3ccccc3)cc2)NC(=O)[C@H](C(C)C)NC(=O)[C@H](Cc2c[nH]c3ccccc23)NC(=O)[C@H](CC(=O)O)NC(=O)[C@H](Cc2ccc(OCC(=O)O)cc2)NC(=O)[C@H](CCCNC(=N)N)NC(=O)CSC[C@@H](C(=O)NCCOCCOCC(=O)NCCCCCCCCCCC(=O)O)NC(=O)[C@H](C(C)O)NC(=O)[C@H](C(C)C)NC(=O)[C@H](CC2CCCCC2)NC(=O)[C@H](CCN)NC(=O)[C@@H](CC(C)C)NC(=O)[C@H](CCCN)NC1=O (stereo partly drawn) [Compound 3335] ({CH2CO}-RY(Carboxymethyl)DWV[Bip]K(Ac)[Orn][dL][Dab][Cha]V[Thr(3ξ)]C[AEEA][Aun]-OH; thioether N-14)
7.97	Cc1cccc(C[C@@H]2NC(=O)[C@H](CC(=O)O)NC(=O)[C@H](Cc3ccc(OCC(=O)O)cc3)NC(=O)[C@H](CN)NC(=O)CSC[C@@H](C(=O)NCCOCCOCC(=O)N[C@@H](CCN)C(=O)NCCCCCCCCCCC(=O)O)NC(=O)[C@H](CCCNC(=N)N)NC(=O)[C@H](C(C)C)NC(=O)[C@H](CC3CCCCC3)NC(=O)[C@H](CCN)NC(=O)[C@@H](CC(C)C)NC(=O)[C@H](CCCN)NC(=O)[C@H](C(C)C)NC(=O)[C@H](Cc3ccc(-c4ccccc4)cc3)NC(=O)[C@H](C(C)C)NC2=O)c1 [Compound 2544] ({CH2CO}-[Dap]Y(Carboxymethyl)D[Phe(3-Me)]V[Bip]V[Orn][dL][Dab][Cha]VRC[AEEA][Dab][Aun]-OH; thioether N-14)
7.50	CC(C)C[C@H]1NC(=O)[C@H](CCCN)NC(=O)[C@H](Cc2ccc(O)cc2)NC(=O)[C@H](Cc2ccc(-c3ccccc3)cc2)NC(=O)[C@H](C(C)C)NC(=O)[C@H](Cc2ccc(F)c(F)c2)NC(=O)[C@H](CC(=O)O)NC(=O)[C@H](Cc2ccc(OCC(=O)O)cc2)NC(=O)[C@H](CN)NC(=O)CSC[C@@H](C(=O)N[C@@H](CCN)C(=O)NCCOCCOCC(=O)NCCCCCCCCCCC(=O)O)NC(=O)[C@H](CCCN)NC(=O)[C@H](C(C)C)NC(=O)[C@H](CC2CCCCC2)NC(=O)[C@H](CCN)NC1=O [Compound 1301] ({CH2CO}-[Dap]Y(Carboxymethyl)D[Phe(3,4-F2)]V[Bip]Y[Orn][dL][Dab][Cha]V[Orn]C[Dab][AEEA][Aun]-OH; thioether N-14)
